Source: the NIST ThermoML archive (doi:10.1016/j.jct.2005.03.019)
Values joined by “and” are separate entries in the source; they are usually repeats but may differ in a detail not shown here. Identical values can stand only once.

Assays:
[1] = 101 kPa, Liquid, Vibrating tube method
[2] = refractive index (Na D-line) (dimensionless); details: 101.33 kPa, Liquid, Standard Abbe refractometry
[3] = xn = mol fraction of the nth substance listed; details: 101 kPa, Liquid, Vibrating tube method

CCc1ccccc1 [ethylbenzene]
Details | mass density, 293.15 K [kg/m3] | mass density, 303.15 K [kg/m3] | mass density, 313.15 K [kg/m3] | mass density, 323.15 K [kg/m3] | mass density, 333.15 K [kg/m3] | refractive index, 298.15 K
[1] | 867.8 | 858.6 | 851.8 | 847.6 | 845.8 | –
[2] | – | – | – | – | – | 1.4962

c1ccccc1 [benzene] + CC1COC(=O)O1
[3], x1 = 1
Details | mass density [kg/m3]
293.15 K | 877.8
303.15 K | 868
313.15 K | 857.9
323.15 K | 847.4
333.15 K | 836.6
343.15 K | 825.4
353.15 K | 813.9

CCc1ccccc1 [ethylbenzene] + CC1COC(=O)O1
[3], x1 = 1
Details | mass density [kg/m3]
293.15 K | 867.8
303.15 K | 858.6
313.15 K | 851.8
323.15 K | 847.6
333.15 K | 845.8

C=Cc1ccccc1 [styrene]
Details | mass density, 293.15 K [kg/m3] | mass density, 303.15 K [kg/m3] | mass density, 313.15 K [kg/m3] | mass density, 323.15 K [kg/m3] | mass density, 333.15 K [kg/m3] | mass density, 343.15 K [kg/m3] | mass density, 353.15 K [kg/m3] | refractive index, 298.15 K
[1] | 906 | 896.4 | 886.9 | 877.3 | 867.8 | 858.2 | 848.6 | –
[2] | – | – | – | – | – | – | – | 1.546

CC1COC(=O)O1 (stereo not drawn) [4-methyl-1,3-dioxolan-2-one] + C=Cc1ccccc1
[3], x2 = 0
Details | mass density [kg/m3]
293.15 K | 1200.3
303.15 K | 1180.6
313.15 K | 1161.2
333.15 K | 1124
343.15 K | 1106
353.15 K | 1088.4

Cc1ccccc1 [toluene]
Details | mass density, 293.15 K [kg/m3] | mass density, 303.15 K [kg/m3] | mass density, 313.15 K [kg/m3] | mass density, 323.15 K [kg/m3] | mass density, 333.15 K [kg/m3] | mass density, 343.15 K [kg/m3] | mass density, 353.15 K [kg/m3] | refractive index, 298.15 K
[1] | 866.8 | 857.5 | 848.2 | 838.9 | 829.5 | 820 | 810.5 | –
[2] | – | – | – | – | – | – | – | 1.4965

CC1COC(=O)O1 (stereo not drawn) [4-methyl-1,3-dioxolan-2-one]
Details | mass density, 293.15 K [kg/m3] | mass density, 303.15 K [kg/m3] | mass density, 313.15 K | mass density, 323.15 K [kg/m3] | mass density, 333.15 K [kg/m3] | mass density, 343.15 K [kg/m3] | mass density, 353.15 K [kg/m3] | refractive index, 293.15 K
[1] | 1200.3 | 1180.6 | 1161.3 kg/m3 and 1161.2 kg/m3 | 1142.4 | 1124 | 1106 | 1088.4 | –
[2] | – | – | – | – | – | – | – | 1.42095

Cc1ccccc1 [toluene] + CC1COC(=O)O1
[3], x1 = 1
Details | mass density [kg/m3]
293.15 K | 866.8
303.15 K | 857.5
313.15 K | 848.2
323.15 K | 838.9
333.15 K | 829.5
343.15 K | 820
353.15 K | 810.5

c1ccccc1 [benzene]
Details | mass density, 293.15 K [kg/m3] | mass density, 303.15 K [kg/m3] | mass density, 313.15 K [kg/m3] | mass density, 323.15 K [kg/m3] | mass density, 333.15 K [kg/m3] | mass density, 343.15 K [kg/m3] | mass density, 353.15 K [kg/m3] | refractive index, 298.15 K
[1] | 877.8 | 868 | 857.9 | 847.4 | 836.6 | 825.4 | 813.9 | –
[2] | – | – | – | – | – | – | – | 1.5009
